The IC50 is the concentration that inhibits the measured activity by half.

The target of series [1] is Histone deacetylase 3/Nuclear receptor corepressor 2 (HDAC3/NCoR2) (Homo sapiens, UniProt O15379). The series is described as follows: Inhibition of C-terminal His-tagged human HDAC3 (1 to 428 residues)/N-terminal GST tagged human NCOR2 (395 to 489) expressed in baculovirus infected sf9 insect cells pretreated with compound followed by Fluor de Lys deacetylase substrate addition by fluorescence method.
Sequence of Histone deacetylase 3/Nuclear receptor corepressor 2 (HDAC3/NCoR2) (O15379 whole entry, the tested form may be a part): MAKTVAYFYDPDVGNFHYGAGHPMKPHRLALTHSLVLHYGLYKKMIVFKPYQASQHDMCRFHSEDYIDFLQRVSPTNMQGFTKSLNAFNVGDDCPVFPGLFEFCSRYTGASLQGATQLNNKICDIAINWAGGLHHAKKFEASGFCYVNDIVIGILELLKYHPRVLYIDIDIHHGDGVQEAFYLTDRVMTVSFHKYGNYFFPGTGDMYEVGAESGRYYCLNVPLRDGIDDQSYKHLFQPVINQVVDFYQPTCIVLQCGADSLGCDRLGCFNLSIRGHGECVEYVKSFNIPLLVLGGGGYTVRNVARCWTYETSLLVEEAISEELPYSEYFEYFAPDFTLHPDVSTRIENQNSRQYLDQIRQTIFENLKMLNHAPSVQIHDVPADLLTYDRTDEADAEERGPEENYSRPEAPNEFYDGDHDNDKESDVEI
Sequence of Histone deacetylase 3/Nuclear receptor corepressor 2 (HDAC3/NCoR2) (Q9Y618 whole entry, further chain, the tested form may be a part): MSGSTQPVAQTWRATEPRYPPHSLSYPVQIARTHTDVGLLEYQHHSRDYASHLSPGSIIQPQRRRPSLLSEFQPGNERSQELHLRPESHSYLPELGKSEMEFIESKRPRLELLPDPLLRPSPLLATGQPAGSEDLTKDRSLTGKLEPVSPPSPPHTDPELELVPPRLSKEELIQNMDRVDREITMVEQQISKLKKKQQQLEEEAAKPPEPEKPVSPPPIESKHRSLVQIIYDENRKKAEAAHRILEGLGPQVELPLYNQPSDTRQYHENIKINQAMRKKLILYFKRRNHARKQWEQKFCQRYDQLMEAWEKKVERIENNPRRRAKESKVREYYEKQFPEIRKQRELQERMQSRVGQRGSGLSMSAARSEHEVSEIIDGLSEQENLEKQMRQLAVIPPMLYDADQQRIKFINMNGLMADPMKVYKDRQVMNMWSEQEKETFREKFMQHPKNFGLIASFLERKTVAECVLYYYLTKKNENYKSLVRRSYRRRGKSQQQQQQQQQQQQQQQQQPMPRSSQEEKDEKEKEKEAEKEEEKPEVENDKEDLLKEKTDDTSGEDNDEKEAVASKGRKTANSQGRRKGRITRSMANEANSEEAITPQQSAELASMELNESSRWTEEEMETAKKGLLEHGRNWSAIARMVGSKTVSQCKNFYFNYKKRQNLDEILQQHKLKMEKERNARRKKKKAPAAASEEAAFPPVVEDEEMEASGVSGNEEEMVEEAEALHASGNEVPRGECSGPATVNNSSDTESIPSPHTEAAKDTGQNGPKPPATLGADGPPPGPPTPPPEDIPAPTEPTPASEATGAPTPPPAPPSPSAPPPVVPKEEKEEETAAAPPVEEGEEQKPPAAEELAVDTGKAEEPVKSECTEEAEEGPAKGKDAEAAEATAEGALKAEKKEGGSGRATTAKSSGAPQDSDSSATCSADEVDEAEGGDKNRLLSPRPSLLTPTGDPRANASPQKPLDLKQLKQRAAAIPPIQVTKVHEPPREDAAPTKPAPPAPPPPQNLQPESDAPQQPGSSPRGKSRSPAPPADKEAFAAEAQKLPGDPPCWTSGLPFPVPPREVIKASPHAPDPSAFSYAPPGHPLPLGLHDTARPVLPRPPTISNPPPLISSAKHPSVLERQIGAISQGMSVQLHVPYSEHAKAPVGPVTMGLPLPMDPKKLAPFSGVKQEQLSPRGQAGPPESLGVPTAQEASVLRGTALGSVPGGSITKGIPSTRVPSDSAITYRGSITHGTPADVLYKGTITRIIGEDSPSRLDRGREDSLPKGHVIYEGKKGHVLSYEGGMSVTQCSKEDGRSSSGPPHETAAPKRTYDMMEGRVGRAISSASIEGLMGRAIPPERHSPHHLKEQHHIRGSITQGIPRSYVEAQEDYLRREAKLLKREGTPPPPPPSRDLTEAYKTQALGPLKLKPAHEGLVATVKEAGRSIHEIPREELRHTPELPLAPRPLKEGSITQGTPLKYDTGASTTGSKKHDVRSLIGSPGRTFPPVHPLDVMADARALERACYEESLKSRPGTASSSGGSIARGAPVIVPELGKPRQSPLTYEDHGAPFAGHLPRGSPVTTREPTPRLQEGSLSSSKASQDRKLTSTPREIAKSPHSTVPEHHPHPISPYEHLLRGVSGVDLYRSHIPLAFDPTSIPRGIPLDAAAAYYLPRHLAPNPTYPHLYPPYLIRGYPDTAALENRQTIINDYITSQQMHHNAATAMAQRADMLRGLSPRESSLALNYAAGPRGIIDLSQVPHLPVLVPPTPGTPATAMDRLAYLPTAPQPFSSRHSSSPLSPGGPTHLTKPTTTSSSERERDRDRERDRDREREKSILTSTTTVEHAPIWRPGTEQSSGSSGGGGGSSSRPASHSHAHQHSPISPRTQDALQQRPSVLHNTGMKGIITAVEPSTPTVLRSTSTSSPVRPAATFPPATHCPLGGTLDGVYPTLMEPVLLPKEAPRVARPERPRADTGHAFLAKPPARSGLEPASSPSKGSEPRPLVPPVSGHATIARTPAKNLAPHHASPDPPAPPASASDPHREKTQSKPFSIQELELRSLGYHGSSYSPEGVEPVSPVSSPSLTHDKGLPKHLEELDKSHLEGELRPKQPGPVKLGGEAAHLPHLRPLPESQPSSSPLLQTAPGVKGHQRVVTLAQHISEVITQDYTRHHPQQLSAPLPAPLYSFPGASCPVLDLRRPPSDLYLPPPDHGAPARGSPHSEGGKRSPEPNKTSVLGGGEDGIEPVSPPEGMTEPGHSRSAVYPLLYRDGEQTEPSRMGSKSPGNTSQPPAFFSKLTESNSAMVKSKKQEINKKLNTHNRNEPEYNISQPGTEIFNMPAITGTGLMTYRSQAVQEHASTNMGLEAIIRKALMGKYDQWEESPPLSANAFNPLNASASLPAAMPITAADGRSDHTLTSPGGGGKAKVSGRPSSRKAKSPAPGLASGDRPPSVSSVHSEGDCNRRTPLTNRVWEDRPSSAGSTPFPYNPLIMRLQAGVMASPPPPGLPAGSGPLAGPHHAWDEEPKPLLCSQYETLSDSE

For series [2], the target named is T1, Protein deacetylase HDAC6 (Homo sapiens, UniProt Q9UBN7).
T1 sequence (Q9UBN7 whole entry): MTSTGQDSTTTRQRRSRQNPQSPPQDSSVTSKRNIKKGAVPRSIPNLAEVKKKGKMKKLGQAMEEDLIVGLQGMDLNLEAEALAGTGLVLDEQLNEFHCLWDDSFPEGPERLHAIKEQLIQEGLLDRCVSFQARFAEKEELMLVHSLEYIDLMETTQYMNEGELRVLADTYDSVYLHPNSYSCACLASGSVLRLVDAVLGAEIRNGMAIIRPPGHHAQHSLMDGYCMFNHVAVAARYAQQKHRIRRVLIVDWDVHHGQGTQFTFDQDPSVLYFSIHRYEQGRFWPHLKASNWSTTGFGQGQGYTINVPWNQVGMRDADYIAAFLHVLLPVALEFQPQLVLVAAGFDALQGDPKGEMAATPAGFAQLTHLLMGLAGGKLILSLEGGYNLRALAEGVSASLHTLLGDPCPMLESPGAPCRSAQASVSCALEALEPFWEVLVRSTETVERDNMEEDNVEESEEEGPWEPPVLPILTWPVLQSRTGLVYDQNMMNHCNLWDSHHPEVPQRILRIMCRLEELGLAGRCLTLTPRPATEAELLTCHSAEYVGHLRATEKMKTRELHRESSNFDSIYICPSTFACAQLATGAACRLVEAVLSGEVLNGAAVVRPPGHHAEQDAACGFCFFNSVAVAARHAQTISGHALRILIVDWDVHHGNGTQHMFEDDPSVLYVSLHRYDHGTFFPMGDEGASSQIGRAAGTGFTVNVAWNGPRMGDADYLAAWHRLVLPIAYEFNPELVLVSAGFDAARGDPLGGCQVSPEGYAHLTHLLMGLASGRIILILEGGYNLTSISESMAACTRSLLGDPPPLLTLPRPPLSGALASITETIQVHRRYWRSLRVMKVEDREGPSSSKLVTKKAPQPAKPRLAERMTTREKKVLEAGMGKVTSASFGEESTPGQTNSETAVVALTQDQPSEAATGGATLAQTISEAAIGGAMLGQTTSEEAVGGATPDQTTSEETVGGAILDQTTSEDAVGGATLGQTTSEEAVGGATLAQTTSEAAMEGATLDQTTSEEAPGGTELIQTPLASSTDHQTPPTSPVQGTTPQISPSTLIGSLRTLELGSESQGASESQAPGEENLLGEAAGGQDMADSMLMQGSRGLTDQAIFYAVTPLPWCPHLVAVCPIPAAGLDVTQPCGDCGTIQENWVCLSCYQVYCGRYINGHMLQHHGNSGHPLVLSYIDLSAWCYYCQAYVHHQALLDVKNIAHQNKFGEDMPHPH
The series is described as follows: biochemical.
Description: Inhibition of recombinant full length human N-terminal GST-tagged HDAC6 expressed in baculovirus infected sf9 insect cells pretreated with compound followed by Fluor de Lys deacetylase substrate addition by fluorescence method

Another series deals with Histone deacetylase. Briefly: Inhibition of HDAC in human 697 cells assessed as increase in H3 acetylation at 1000 nM incubated for 16 hrs by ELISA. Particulars: human, 697, 16 h, 1 µM; call rule not given here. It is filed as cell-based. A general note: An ELISA detects its analyte on a solid surface through an enzyme-linked reagent.
A short description of series [3]: Selectivity ratio of IC50 for N-terminal His-tagged human HDAC11 expressed in baculovirus expression system to IC50 for human N-terminal GST-tagged HDAC6 expressed in baculovirus infected sf9 insect cells.
Series [4] in a line: Selectivity ratio of IC50 for C-terminal His-tagged human HDAC8 expressed in baculovirus infected sf9 insect cells to IC50 for human N-terminal GST-tagged HDAC6 expressed in baculovirus infected sf9 insect cells.
The nature of series [5]: Stability in rat plasma assessed as parent compound remaining at 100 uM after 4 hrs by LC-MS/MS analysis. It is filed as ADME, cell-free. Particulars: read-out: Stability.
A further series has as its system 697. Briefly: Cytotoxicity against human 697 cells after 48 hrs by CellTiter 96 aqueous one solution assay. It is filed as cell-based. Particulars: Homo sapiens, 697, 48 h.
A short description of series [6]: Stability in human liver S9 fraction assessed as parent compound remaining at 5 uM after 90 mins in presence of NADPH by LC-MS/MS analysis. It is filed as ADME, subcellular. Conditions: read-out: Stability.
Series [7] is described as follows: Stability in human plasma assessed as parent compound remaining at 100 uM after 4 hrs by LC-MS/MS analysis. It is filed as ADME, cell-free. Particulars: read-out: Stability.
Series [8] can be described thus: Selectivity ratio of IC50 for N-terminal GST-tagged human HDAC7 (518 to end residues) expressed in baculovirus infected sf9 insect cells to IC50 for human N-terminal GST-tagged HDAC6 expressed in baculovirus infected sf9 insect cells.
Series [9] is described as follows: Selectivity ratio of IC50 for C-terminal GST-tagged human HDAC5 to IC50 for human N-terminal GST-tagged HDAC6 expressed in baculovirus infected sf9 insect cells.
Series [10] is described as follows: Stability in rat liver S9 fraction assessed as parent compound remaining at 5 uM after 90 mins in presence of NADPH by LC-MS/MS analysis. Conditions: read-out: Stability. It is filed as ADME, subcellular.
Series [11] is described as follows: Selectivity ratio of IC50 for C-terminal His-tagged human HDAC9 (604 to 1066 residues) expressed in baculovirus infected sf9 insect cells to IC50 for human N-terminal GST-tagged HDAC6 expressed in baculovirus infected sf9 insect cells.
A further series has as its system PBMC. Briefly: Cytotoxicity against human PBMC cells after 72 hrs by CellTiter 96 aqueous one solution assay. It is filed as cell-based.
The nature of series [12]: Selectivity ratio of IC50 for human HDAC4 expressed in baculovirus infected sf9 insect cells to IC50 for human N-terminal GST-tagged HDAC6 expressed in baculovirus infected sf9 insect cells.
The nature of series [13]: Selectivity ratio of IC50 for N-terminal Flag-tagged human HDAC10 (2 to 631 residues) expressed in baculovirus infected sf9 insect cells to IC50 for human N-terminal GST-tagged HDAC6 expressed in baculovirus infected sf9 insect cells.

As to `CC(=O)Nc1ccc(C(=O)NO)cc1`, the IC50 in series [1] was found to be 1670 nM; in series [2], 270 nM.

For `Cn1c(Sc2c(F)cc(C(=O)NO)cc2F)nnc1-c1cccnn1`, the IC50 in [2] was 13 nM; in the series with 697, greater than 1000 nM; in the series with PBMC it was greater than 1000 nM. Further, the “inhibition (INH)” value in the series with Histone deacetylase is on record as “Active”. For the same compound, the “Ratio IC50” value in series [3] was determined as 278; in series [4], 34; in [8] it was 15; in [9], 34; in [11] it was 16; in series [12] it was 33. Moreover, the “Ratio IC50” value in [13] was 372. In addition, the remaining at 4 h, 100 µM turned out to be 98% in [5] and 100% in series [7]. Also, the remaining at […], 5 µM in series [6] was 79%; in [10] it was 58%.

These data come from ChEMBL document CHEMBL4414648, “Novel Benzohydroxamate-Based Potent and Selective Histone Deacetylase 6 (HDAC6) Inhibitors Bearing a Pentaheterocyclic Scaffold: Design, Synthesis, and Biological Evaluation” (J Med Chem, 2019).
